pIC50: −log10 of the molar value.
biological target: T1, Steryl-sulfatase (Homo sapiens, UniProt P08842); experiment: Inhibition of purified human steroid sulfatase
T1 sequence (P08842 whole entry): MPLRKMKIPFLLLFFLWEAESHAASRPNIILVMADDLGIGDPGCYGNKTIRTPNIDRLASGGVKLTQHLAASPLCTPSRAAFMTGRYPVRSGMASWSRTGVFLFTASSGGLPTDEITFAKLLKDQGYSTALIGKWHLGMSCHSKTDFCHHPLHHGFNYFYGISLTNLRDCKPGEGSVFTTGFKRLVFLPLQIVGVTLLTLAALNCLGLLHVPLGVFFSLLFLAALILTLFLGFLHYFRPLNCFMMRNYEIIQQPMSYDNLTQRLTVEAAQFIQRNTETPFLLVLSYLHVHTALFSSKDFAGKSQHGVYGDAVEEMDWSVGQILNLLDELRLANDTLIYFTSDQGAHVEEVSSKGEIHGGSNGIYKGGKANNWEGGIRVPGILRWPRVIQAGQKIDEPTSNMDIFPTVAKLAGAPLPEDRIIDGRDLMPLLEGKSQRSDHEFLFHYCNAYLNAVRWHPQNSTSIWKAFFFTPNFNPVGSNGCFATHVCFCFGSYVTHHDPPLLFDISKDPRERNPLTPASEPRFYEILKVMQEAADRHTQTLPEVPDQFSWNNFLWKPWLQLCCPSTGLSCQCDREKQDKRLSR

Going from O=COc1ccc2nc(C=C3C4CC5CC(C4)CC3C5)oc2c1 to Oc1ccc2nc(C=C3C4CC5CC(C4)CC3C5)oc2c1, the pIC50 rises from 5.82 to 6.59 (0.77 log units). The second is the more potent here.

First: C[C@]12CC[C@H](OC=O)C=C1CCC1C2CC[C@]2(C)C(=O)CCC12 (stereo partly drawn)
Second: C[C@]12CC[C@@H]3c4ccc(OC=O)cc4CCC3[C@@H]1CCC2=O (single isomer, unassigned)
The pIC50 of the first is lower: under 5.00 for the first, 6.38 for the second.

C[C@]12CC[C@@H]3c4ccc(OC(=O)NCc5ccccc5)cc4CCC3[C@@H]1CCC2=O (single isomer, unassigned) and CC(=O)Oc1ccc2c(c1)CCC1[C@@H]2CC[C@]2(C)C(=O)CC[C@@H]12 (single isomer, unassigned) cannot be ordered by pIC50: under 4.30 for the first, under 4.30 for the second.

CC(C)(C)OC(=O)NCC(=O)Oc1ccc2c(c1)CCC1[C@@H]2CC[C@]2(C)C(=O)CC[C@@H]12 (single isomer, unassigned) and C[C@]12CC[C@@H]3c4ccc(OC(=O)CN)cc4CCC3[C@@H]1CCC2=O (single isomer, unassigned) cannot be ordered by pIC50: under 4.30 for the first, under 4.30 for the second.

C[C@]12CC[C@@H]3c4ccc(OC#N)cc4CCC3[C@@H]1CCC2=O (single isomer, unassigned) and C[C@]12CC[C@@H]3c4ccc(OC(=N)S)cc4CCC3[C@@H]1CCC2=O (single isomer, unassigned) cannot be ordered by pIC50: under 4.30 for the first, under 4.30 for the second.

First: C[C@]12CC[C@@H]3c4ccc(OC(N)=O)cc4CCC3[C@@H]1CCC2=O (single isomer, unassigned)
Second: C[C@]12CC[C@@H]3c4ccc(OS(N)(=O)=O)cc4CCC3[C@@H]1CCC2=O (single isomer, unassigned) [EMATE]
The pIC50 of the first is lower: under 4.30 for the first, 7.30 for the second. The second is the more potent here.

With O=COc1ccccc1 [FORMIC ACID PHENYL ESTER] the pIC50 was under 4.52.

— ChEMBL document CHEMBL1137040, “Estrone formate: a novel type of irreversible inhibitor of human steroid sulfatase” (Bioorg Med Chem Lett, 2004)
